This note sets out measurements from patent US20070275925A1, “ASTHMA DIAGNOSIS AND THERAPY” (REGENTS OF THE UNIVERSITY OF CALIFORNIA, priority 2006, published 2007).

The test system of this test is primary human airway epithelial cells. Nature of the test: IL-13 stimulation of airway epithelial cells in vitro, real time RT-PCR. Format: cell-based. The settings on record: IL-13 10 ng/mL, up to 4 days. As for the experimental part: To confirm that airway epithelial cells are a source of serpinB2 and periostin and that these genes may be induced by cytokines relevant to asthma, we stimulated primary human airway epithelial cells in vitro with IL-13 (0.1 to 10 ng) for up to 4 days (methods in supplementary appendix).
Human primary bronchial airway epithelial cells were purchased (Clonetics—Cambrex Bio Science, Walkersville Md.) and grown as described by Gray et al.^7 Cells were purchased at passage 1 and expanded in T25 flasks until they reached 80% confluency at which time they were passaged onto 6.5 mm Transwell permeable supports at a density of 132,000 cells/filter. The cells were grown submerged in Gray's medium until approximately day 7 to 9 at which point an air-liquid interface was established. Cells became fully differentiated (ciliated and mucous producing) as determined by transepithelial voltage and resistance after 2-3 weeks on the filters. Cells were exposed to the recombinant human IL-13 (R&D Systems, Minneapolis Minn.) for up to four days at concentrations ranging from 0.1 ng/ml to 10 ng/ml. Filters were cut from the support and submerged in RLT lysis buffer (Qiagen Inc, Valencia Calif.) and stored at −80° C. before analysis of gene expression by real time RT-PCR.

Consider “IL-13: recombinant human IL-13 (R&D Systems) used to stimulate airway epithelial cells”, for which the “Epithelial gene expression of periostin” value is reported as “large increases” and the “Epithelial gene expression of serpinB2” value is listed as “large increases”.
